19 molecules from patent publication US8933018B2, “Boron containing polybasic bacterial efflux pump inhibitors and therapeutic uses thereof” (priority 2011, dated 2015) can be followed below.

Molecules are shown by their SMILES.

For the experiment, the system named is P. aeruginosa, PAM1723, overexpressing the MexAB-OprM efflux pump. The experiment is classed as cell-based, Pseudomonas aeruginosa. The following applies: lowest EPI concentration giving antibacterial activity with levofloxacin at 1/8 of its MIC, MHB, 20 h at 35° C. How it is done: All EPI compounds were readily soluble in water and stock solutions were prepared at a final concentration of 10 mg/ml. Stock solutions were further diluted, according to the needs of the particular assay, in Mueller Hinton Broth (MHB). Stock solution was stored at […].
The checkerboard assay was performed in microtiter plates. […] EPIs were diluted in the y-axis, each row containing a single concentration of an EPI. […] The assay was performed in MHB with a final bacterial inoculum of 5 times 10^5 CFU/ml (from an early-log phase culture). Microtiter plates were incubated during 20 h at 35° C. and were read using a microtiter plate reader (Molecular Devices) at 650 nm as well as visual observation using a microtiter plate-reading mirror.
Take `CC1(C)OB(O)c2cc(NC(=O)[C@@H](Cc3ccc(C(F)(F)F)cc3)NC(=O)[C@@H](N)CCC(=O)N3C[C@@H](N)C[C@H]3CN)ccc21` [Compound 75, (S)-2-amino-5-((2S,4S)-4-amino-2-(aminomethyl)pyrrolidin-1-yl)-N-((R)-1-(1-hydroxy-3,3-dimethyl-1,3-dihydrobenzo[c][1,2]oxaborol-6-ylamino)-1-oxo-3-(4-(trifluoromethyl)phenyl)propan-2-yl)-5-oxopentanamide]: the “MPC8 (Minimum Potentiating Concentration)” value (from here on “MPC8”) was “B (B = MPC8 of 2.5 μg/ml to less than 10 μg/mL.)”.

On to `CC1(C)OB(O)c2ccc(NC(=O)[C@@H](Cc3ccc(C(F)(F)F)cc3)NC(=O)[C@@H](N)CCC(=O)NC(CN)CN)cc21` [Compound 95, (S)-2-amino-N^5-(1,3-diaminopropan-2-yl)-N^1-((R)-1-(1-hydroxy-3,3-dimethyl-1,3-dihydrobenzo[c][1,2]oxaborol-5-ylamino)-1-oxo-3-(4-(trifluoromethyl)phenyl)propan-2-yl)pentanediamide], for which the “MPC8” value is given as “B (B = MPC8 of 2.5 μg/ml to less than 10 μg/mL.)”.

On to `NCCN(CCN)C(=O)C[C@H](N)C(=O)N[C@H](Cc1ccc(C(F)(F)F)cc1)C(=O)Nc1cc(B(O)O)cc(C(F)(F)F)c1` [Compound 10, 3-((R)-2-((S)-2-amino-4-(bis(2-aminoethyl)amino)-4-oxobutanamido)-3-(4-(trifluoromethyl)phenyl)propanamido)-5-(trifluoromethyl)phenylboronic acid], for which the “MPC8” value is “B (B = MPC8 of 2.5 μg/ml to less than 10 μg/mL.)”.

Consider `NCCN(CCN)C(=O)CC[C@H](N)C(=O)N[C@H](Cc1ccc(C(F)(F)F)cc1)C(=O)Nc1ccc(B(O)O)c(C(F)(F)F)c1` [Compound 17, 4-((R)-2-((S)-2-amino-5-(bis(2-aminoethyl)amino)-5-oxopentanamido)-3-(4-(trifluoromethyl)phenyl)propanamido)-2-(trifluoromethyl)phenylboronic acid], for which the “MPC8” value is given as “C (C = MPC8 of 10 μg/mL or greater.)”.

For `N[C@@H]1C[C@H](N)C[C@H](NC(=O)CC[C@H](N)C(=O)N[C@H](CCc2ccc(C(F)(F)F)cc2)C(=O)Nc2cccc(B(O)O)c2)C1` [Compound 23, 3-((R)-2-((S)-2-amino-5-((1S,3R,5S)-3,5-diaminocyclohexylamino)-5-oxopentanamido)-4-(4-(trifluoromethyl)phenyl)butanamido)phenylboronic acid], the “MPC8” value is recorded as “B (B = MPC8 of 2.5 μg/ml to less than 10 μg/mL.)”.

Turning to `CC1(C)OB(O)c2ccc(NC(=O)[C@@H](CCc3ccc(C(F)(F)F)cc3)NC(=O)[C@@H](N)CCC(=O)NC(CN)CN)cc21` [Compound 96, (S)-2-amino-N^5-(1,3-diaminopropan-2-yl)-N^1-((R)-1-(1-hydroxy-3,3-dimethyl-1,3-dihydrobenzo[c][1,2]oxaborol-5-ylamino)-1-oxo-4-(4-(trifluoromethyl)phenyl)butan-2-yl)pentanediamide], the “MPC8” value is on record as “A (A = MPC8 of less than 2.5 μg/mL.)”.

Turning to `CC1(C)OB(O)c2cc(NC(=O)[C@@H](CCc3ccc(C(F)(F)F)cc3)NC(=O)[C@@H](N)CCC(=O)N3C[C@@H](N)C[C@H]3CN)ccc21` [Compound 41, (S)-2-amino-5-((2S,4S)-4-amino-2-(aminomethyl)pyrrolidin-1-yl)-N-((R)-1-(1-hydroxy-3,3-dimethyl-1,3-dihydrobenzo[c][1,2]oxaborol-6-ylamino)-1-oxo-4-(4-(trifluoromethyl)phenyl)butan-2-yl)-5-oxopentanamide], the “MPC8” value is given as “B (B = MPC8 of 2.5 μg/ml to less than 10 μg/mL.)”.

In the case of `CC1(C)OB(O)c2c1ccc(F)c2NC(=O)[C@@H](CCc1ccc(C(F)(F)F)cc1)NC(=O)[C@@H](N)CCC(=O)N(CCN)CCN` [Compound 103, (S)-2-amino-N^5,N^5-bis(2-aminoethyl)-N^1-((R)-1-(6-fluoro-1-hydroxy-3,3-dimethyl-1,3-dihydrobenzo[c][1,2]oxaborol-7-ylamino)-1-oxo-4-(4-(trifluoromethyl)phenyl)butan-2-yl)pentanediamide], the “MPC8” value is listed as “B (B = MPC8 of 2.5 μg/ml to less than 10 μg/mL.)”.

Consider `NCCN(CCN)C(=O)C[C@H](N)C(=O)N[C@H](Cc1ccc(C(F)(F)F)cc1)C(=O)Nc1ccc2c(c1)B(O)OC2` [Compound 5, (S)-2-amino-N4,N4-bis(2-aminoethyl)-N1-((R)-1-(1-hydroxy-1,3-dihydrobenzo[c][1,2]oxaborol-6-ylamino)-1-oxo-3-(4-(trifluoromethyl)phenyl)propan-2-yl)succinamide], for which the “MPC8” value is reported as “C (C = MPC8 of 10 μg/mL or greater.)”.

Consider `CC1(C)OB(O)c2cc(NC(=O)[C@@H](CCc3ccc(C(F)(F)F)cc3)NC(=O)[C@@H](N)CCC(=O)N(C[C@@H](O)CN)C[C@@H](O)CN)ccc21` [Compound 40, (S)-2-amino-N^5,N^5-bis((S)-3-amino-2-hydroxypropyl)-N^1-((R)-1-(1-hydroxy-3,3-dimethyl-1,3-dihydrobenzo[c][1,2]oxaborol-6-ylamino)-1-oxo-4-(4-(trifluoromethyl)phenyl)butan-2-yl)pentanediamide], for which the “MPC8” value was “B (B = MPC8 of 2.5 μg/ml to less than 10 μg/mL.)”.

On to `CC1(C)OB(O)c2cc(NC[C@@H](CCc3ccc(C(F)(F)F)cc3)NC(=O)[C@@H](N)CCC(=O)N(CCN)CCN)ccc21` [Compound 107, (S)-2-amino-N^5,N^5-bis(2-aminoethyl)-N^1-((R)-1-(1-hydroxy-3,3-dimethyl-1,3-dihydrobenzo[c][1,2]oxaborol-6-ylamino)-4-(4-(trifluoromethyl)phenyl)butan-2-yl)pentanediamide], for which the “MPC8” value is “A (A = MPC8 of less than 2.5 μg/mL.)”.

Take `NCC(O)(CN)CNC(=O)CC[C@H](N)C(=O)N[C@H](CCc1ccc(C(F)(F)F)cc1)C(=O)Nc1cccc(B(O)O)c1` [Compound 22, 3-((R)-2-((S)-2-amino-5-(3-amino-2-(aminomethyl)-2-hydroxypropylamino)-5-oxopentanamido)-4-(4-(trifluoromethyl)phenyl)butanamido) phenylboronic acid]: the “MPC8” value was “B (B = MPC8 of 2.5 μg/ml to less than 10 μg/mL.)”.

On to `NCCN(CCN)C(=O)CC[C@H](N)C(=O)N[C@H](Cc1ccc(C(F)(F)F)cc1)C(=O)Nc1cc(B(O)O)cc(C(F)(F)F)c1` [Compound 15, 3-((R)-2-((S)-2-amino-5-(bis(2-aminoethyl)amino)-5-oxopentanamido)-3-(4-(trifluoromethyl)phenyl)propanamido)-5-(trifluoromethyl)phenylboronic acid], for which the “MPC8” value is listed as “B (B = MPC8 of 2.5 μg/ml to less than 10 μg/mL.)”.

With `NCCN(CCN)C(=O)CC[C@H](N)C(=O)N[C@H](CCc1ccc(C(F)(F)F)cc1)C(=O)Nc1ccc(F)c(B(O)O)c1` [Compound 32, 5-((R)-2-((S)-2-amino-5-(bis(2-aminoethyl)amino)-5-oxopentanamido)-4-(4-(trifluoromethyl)phenyl)butanamido)-2-fluorophenylboronic acid], the “MPC8” value was “B (B = MPC8 of 2.5 μg/ml to less than 10 μg/mL.)”.

Regarding `N[C@@H]1C[C@H](N)CN(C(=O)CC[C@H](N)C(=O)N[C@H](Cc2ccc(C(F)(F)F)cc2)C(=O)Nc2cc(B(O)O)cc(C(F)(F)F)c2)C1` [Compound 18, 3-((R)-2-((S)-2-amino-5-((3R,5S)-3,5-diaminopiperidin-1-yl)-5-oxopentanamido)-3-(4-(trifluoromethyl)phenyl)propanamido)-5-(trifluoromethyl)phenylboronic acid], the “MPC8” value was “B (B = MPC8 of 2.5 μg/ml to less than 10 μg/mL.)”.

As for `CC1(C)OB(O)c2cc(NC(=O)[C@@H](CCc3ccc(C(F)(F)F)cc3)NC(=O)[C@@H](N)CCC(=O)NC(CN)CN)ccc21` [Compound 39, (S)-2-amino-N^5-(1,3-diaminopropan-2-yl)-N^1-((R)-1-(1-hydroxy-3,3-dimethyl-1,3-dihydrobenzo[c][1,2]oxaborol-6-ylamino)-1-oxo-4-(4-(trifluoromethyl)phenyl)butan-2-yl)pentanediamide], the “MPC8” value is “A (A = MPC8 of less than 2.5 μg/mL.)”.

Take `NCCN(CCN)C(=O)CC[C@H](N)C(=O)N[C@H](Cc1ccc(C(F)(F)F)cc1)C(=O)NCc1ccc(B(O)O)cc1` [Compound 3, 4-(((R)-2-((S)-2-amino-5-(bis(2-aminoethyl)amino)-5-oxopentanamido)-3-(4-(trifluoromethyl)phenyl)propanamido)methyl)phenylboronic acid]: the “MPC8” value is recorded as “C (C = MPC8 of 10 μg/mL or greater.)”.

Regarding `NCCN(CCN)C(=O)CC[C@H](N)C(=O)N[C@H](Cc1ccc(C(F)(F)F)cc1)C(=O)Nc1cnc2ccc(B(O)O)cc2c1` [Compound 43, 3-((R)-2-((S)-2-amino-5-(bis(2-aminoethyl)amino)-5-oxopentanamido)-3-(4-(trifluoromethyl)phenyl)propanamido)quinolin-6-ylboronic acid], the “MPC8” value is reported as “B (B = MPC8 of 2.5 μg/ml to less than 10 μg/mL.)”.

As to `NCCN(CCN)C(=O)CC[C@H](N)C(=O)N[C@H](CCc1ccc(C(F)(F)F)cc1)C(=O)Nc1ccc(B(O)O)cc1F` [Compound 35, 4-((R)-2-((S)-2-amino-5-(bis(2-aminoethyl)amino)-5-oxopentanamido)-4-(4-(trifluoromethyl)phenyl)butanamido)-3-fluorophenylboronic acid], the “MPC8” value is reported as “B (B = MPC8 of 2.5 μg/ml to less than 10 μg/mL.)”.
